Broadly, the IC50 is the concentration that inhibits the measured activity by half.

The first assay concerns Human primary T cells. Nature of the assay: IL-2 ELISA, human primary T cell, anti-CD3+CD28+ (whole cell assay). The format is cell-based. The conditions noted are these: Homo sapiens, T-cell, 24 h, human primary T cells stimulated with anti-CD3 + anti-CD28, 24 hours. The procedure, abridged: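 PBMC-derived T cells, pre-expanded on αCD3/αCD28 with IL-2 and then washed free of IL-2, were preincubated with compound for 1 hr at 37° C (100,000 cells/well). They were then stimulated on 1 μg/ml αCD3 plus 5 μg/ml αCD28 for 24 h, and supernatant IL-2 was measured by ELISA. The counter-assay used 0.5 ng/ml PMA plus 0.1 μM ionomycin instead.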
Background: In an ELISA, binding on a coated surface is turned into a signal by an enzyme label.
`CN1C(C)(C)CC(Nc2nc(Nc3ccc(OC4CCN(CC(F)(F)F)CC4)c(OC(F)F)c3)ncc2F)CC1(C)C` [Compound I-145, N2-(4-(1-(2,2,2-trifluoroethyl)piperidin-4-yloxy)-3-(difluoromethoxy)phenyl)-5-fluoro-N4-(1,2,2,6,6-pentamethylpiperidin-4-yl)pyrimidine-2,4-diamine]: the concentration for half-maximal inhibition (IC50) lay in the range of 250 to 500 nM.

As for `CC(C)N1CC[C@@H](Oc2ccc(Nc3ncc(F)c(NC4CC(C)(C)NC(C)(C)C4)n3)cc2OC(F)F)C1` [Compound I-146, N2-(4-((R)-1-isopropylpyrrolidin-3-yloxy)-3-(difluoromethoxy)phenyl)-5-fluoro-N4-(2,2,6,6-tetramethylpiperidin-4-yl)pyrimidine-2,4-diamine], the IC50 is 250 to 500 nM.

Regarding `CC(C)N1CC[C@@H](Oc2ccc(Nc3ncc(F)c(NC4CC(C)(C)N(C)C(C)(C)C4)n3)cc2OC(F)F)C1` [Compound I-147, N2-(4-((R)-1-isopropylpyrrolidin-3-yloxy)-3-(difluoromethoxy)phenyl)-5-fluoro-N4-(1,2,2,6,6-pentamethylpiperidin-4-yl)pyrimidine-2,4-diamine], the half-inhibitory concentration (IC50) is below 250 nM.

On to `CC(C)N1CC[C@H](Oc2ccc(Nc3ncc(F)c(NC4CC(C)(C)NC(C)(C)C4)n3)cc2OC(F)F)C1` [Compound I-148, N2-(4-((S)-1-isopropylpyrrolidin-3-yloxy)-3-(difluoromethoxy)phenyl)-5-fluoro-N4-(2,2,6,6-tetramethylpiperidin-4-yl)pyrimidine-2,4-diamine], for which the half-inhibitory concentration (IC50) lay in the range of 250 to 500 nM.

`CC(C)N1CC[C@H](Oc2ccc(Nc3ncc(F)c(NC4CC(C)(C)N(C)C(C)(C)C4)n3)cc2OC(F)F)C1` [Compound I-149, N2-(4-((S)-1-isopropylpyrrolidin-3-yloxy)-3-(difluoromethoxy)phenyl)-5-fluoro-N4-(1,2,2,6,6-pentamethylpiperidin-4-yl)pyrimidine-2,4-diamine]: the half-maximal inhibitory concentration (IC50) is below 250 nM.

For `CC(C)N1CCC(Oc2ccc(Nc3ncc(F)c(NC4CC(C)(C)NC(C)(C)C4)n3)cc2C#N)CC1` [Compound I-150, 2-(1-isopropylpiperidin-4-yloxy)-5-(4-(2,2,6,6-tetramethylpiperidin-4-ylamino)-5-fluoropyrimidin-2-ylamino)benzonitrile], the IC50 was below 250 nM.

For `CC(C)N1CCC(Oc2ccc(Nc3ncc(F)c(NC4CC(C)(C)N(C)C(C)(C)C4)n3)cc2C#N)CC1` [Compound I-151, 2-(1-isopropylpiperidin-4-yloxy)-5-(4-(1,2,2,6,6-pentamethylpiperidin-4-ylamino)-5-fluoropyrimidin-2-ylamino)benzonitrile], the half-inhibitory concentration (IC50) is 500 to 1000 nM.

`CN1C(C)(C)CC(Nc2nc(Nc3ccc4c(c3)OCC(C(=O)N3CCCCC3)O4)ncc2F)CC1(C)C` (stereo not shown) [II-1, (6-(4-(1,2,2,6,6-pentamethylpiperidin-4-ylamino)-5-fluoropyrimidin-2-ylamino)-2,3-dihydrobenzo[b][1,4]dioxin-2-yl)(piperidin-1-yl)methanone]: the IC50 was above 1000 nM.

On to `CN1C(C)(C)CC(Nc2nc(Nc3ccc4c(c3)OCC(C(=O)N3CCOCC3)O4)ncc2F)CC1(C)C` (stereo not shown) [II-2, (6-(4-(1,2,2,6,6-pentamethylpiperidin-4-ylamino)-5-fluoropyrimidin-2-ylamino)-2,3-dihydrobenzo[b][1,4]dioxin-2-yl)(morpholino)methanone], for which the IC50 is above 1000 nM.

Turning to `CC1(C)CC(Nc2nc(Nc3ccc4c(c3)OCC(C(=O)N3CCCCC3)O4)ncc2F)CC(C)(C)N1` (stereo not shown) [II-3, (6-(4-(2,2,6,6-tetramethylpiperidin-4-ylamino)-5-fluoropyrimidin-2-ylamino)-2,3-dihydrobenzo[b][1,4]dioxin-2-yl)(piperidin-1-yl)methanone], the half-maximal inhibitory concentration (IC50) is above 1000 nM.

Consider `CC1(C)CC(Nc2nc(Nc3ccc4c(c3)OCC(C(=O)N3CCOCC3)O4)ncc2F)CC(C)(C)N1` (stereo not shown) [II-4, (6-(4-(2,2,6,6-tetramethylpiperidin-4-ylamino)-5-fluoropyrimidin-2-ylamino)-2,3-dihydrobenzo[b][1,4]dioxin-2-yl)(morpholino)methanone], for which the IC50 was above 1000 nM.

As for `CN1C(C)(C)CC(Nc2nc(Nc3ccc4c(c3)OCC(CN3CCCCC3)O4)ncc2F)CC1(C)C` (stereo not shown) [II-5, 5-fluoro-N2-(2,3-dihydro-2-((piperidin-1-yl)methyl)benzo[b][1,4]dioxin-6-yl)-N4-(1,2,2,6,6-pentamethylpiperidin-4-yl)pyrimidine-2,4-diamine], the IC50 was above 1000 nM.

For the compound `CN1C(C)(C)CC(Nc2nc(Nc3ccc4c(c3)OCC(CN3CCOCC3)O4)ncc2F)CC1(C)C` (stereo not shown) [II-6, 5-fluoro-N2-(2,3-dihydro-2-(morpholinomethyl)benzo[b][1,4]dioxin-6-yl)-N4-(1,2,2,6,6-pentamethylpiperidin-4-yl)pyrimidine-2,4-diamine], the half-maximal inhibitory concentration (IC50) is above 1000 nM.

Regarding `CC1(C)CC(Nc2nc(Nc3ccc4c(c3)OCC(CN3CCCCC3)O4)ncc2F)CC(C)(C)N1` (stereo not shown) [II-7, 5-fluoro-N2-(2,3-dihydro-2-((piperidin-1-yl)methyl)benzo[b][1,4]dioxin-6-yl)-N4-(2,2,6,6-tetramethylpiperidin-4-yl)pyrimidine-2,4-diamine], the IC50 is above 1000 nM.

On to `CC1(C)CC(Nc2nc(Nc3ccc4c(c3)OCC(CN3CCOCC3)O4)ncc2F)CC(C)(C)N1` (stereo not shown) [II-8, 5-fluoro-N2-(2,3-dihydro-2-(morpholinomethyl)benzo[b][1,4]dioxin-6-yl)-N4-(2,2,6,6-tetramethylpiperidin-4-yl)pyrimidine-2,4-diamine], for which the IC50 is above 1000 nM.

Take `CC1(C)CC(Nc2nc(Nc3ccc4c(c3)OC(C)(C)C(=O)N4CCF)ncc2F)CC(C)(C)N1` [II-9, N2-[2,2-Dimethyl-4-(2-fluoroethyl)-1,4-benzoxazin-3-one-7-yl]-5-fluoro-N4-(2,2,6,6-tetramethylpiperidin-4-yl)-2,4-pyrimidinediamine]: the concentration for half-maximal inhibition (IC50) was below 250 nM.

Consider `Cc1nnnn1-c1cc(Nc2ncc(F)c(NC3CC(C)(C)N(C)C(C)(C)C3)n2)ccc1OC1CCN(C(C)C)CC1` [III-1, 5-fluoro-N2-(4-(1-isopropylpiperidin-4-yloxy)-3-(5-methyl-1H-tetrazol-1-yl)phenyl)-N4-(1,2,2,6,6-pentamethylpiperidin-4-yl)pyrimidine-2,4-diamine], for which the concentration for half-maximal inhibition (IC50) fell in the range of 250 to 500 nM.

On to `Cc1nnnn1-c1cc(Nc2ncc(F)c(NC3CC(C)(C)NC(C)(C)C3)n2)ccc1OC1CCN(C(C)C)CC1` [III-2, 5-fluoro-N2-(4-(1-isopropylpiperidin-4-yloxy)-3-(5-methyl-1H-tetrazol-1-yl)phenyl)-N4-(2,2,6,6-tetramethylpiperidin-4-yl)pyrimidine-2,4-diamine], for which the IC50 is above 1000 nM.

In the case of `CC(C)N1CCC(Oc2ccc(Nc3ncc(F)c(NC4CC(C)(C)N(CC(F)(F)F)C(C)(C)C4)n3)cc2OC(F)F)CC1` [III-3, N2-(3-(Difluoromethoxy)-4-(1-isopropylpiperidin-4-yloxy)phenyl)-5-fluoro-N4-(2,2,6,6-tetramethyl-1-(2,2,2-trifluoroethyl)piperidin-4-yl)pyrimidine-2,4-diamine], the IC50 is above 1000 nM.

Turning to `CC(=O)N1C(C)(C)CC(Nc2nc(Nc3ccc(OC4CCN(C(C)C)CC4)c(OC(F)F)c3)ncc2F)CC1(C)C` [III-4, 1-(4-(2-(3-(Difluoromethoxy)-4-(1-isopropylpiperidin-4-yloxy)phenylamino)-5-fluoropyrimidin-4-ylamino)-2,2,6,6-tetramethylpiperidin-1-yl)ethanone], the 50% inhibitory concentration (IC50) was above 1000 nM.

With `CC1CC(Nc2nc(Nc3cccc(-n4cnnn4)c3)ncc2F)CC(C)N1C1CC1` (stereo not shown) [III-5, N^2-(3-(1H-tetrazol-1-yl)phenyl)-N4-(1-cyclopropyl-2,6-dimethylpiperidin-4-yl)-5-fluoropyrimidine-2,4-diamine], the 50% inhibitory concentration (IC50) was 250 to 500 nM.

Consider `Cc1ccc(Nc2ncc(F)c(NC3CC(C)N(C4CC4)C(C)C3)n2)cc1-n1cnnn1` (stereo not shown) [III-6, N^4-(1-cyclopropyl-2,6-dimethylpiperidin-4-yl)-5-fluoro-N2-(4-methyl-3-(1H-tetrazol-1-yl)phenyl)pyrimidine-2,4-diamine], for which the IC50 is 250 to 500 nM.

Regarding `COc1cc(Nc2ncc(F)c(NC3CC(C)N(C4CC4)C(C)C3)n2)cc(-n2cnnn2)c1` (stereo not shown) [III-7, N^4-(1-cyclopropyl-2,6-dimethylpiperidin-4-yl)-5-fluoro-N2-(3-methoxy-5-(1H-tetrazol-1-yl)phenyl)pyrimidine-2,4-diamine], the IC50 was below 250 nM.

For the compound `Cc1nnnn1-c1cccc(Nc2ncc(F)c(NC3CC(C)N(C4CC4)C(C)C3)n2)c1` (stereo not shown) [III-8, N^4-(1-cyclopropyl-2,6-dimethylpiperidin-4-yl)-5-fluoro-N2-(3-(5-methyl-1H-tetrazol-1-yl)phenyl)pyrimidine-2,4-diamine], the IC50 was below 250 nM.

Consider `CC1CC(Nc2nc(Nc3cccc(-n4nnnc4SCC(F)(F)F)c3)ncc2F)CC(C)N1C1CC1` (stereo not shown) [III-9, N^4-(1-cyclopropyl-2,6-dimethylpiperidin-4-yl)-5-fluoro-N2-(3-(5-(2,2,2-trifluoroethylthio)-1H-tetrazol-1-yl)phenyl)pyrimidine-2,4-diamine], for which the 50% inhibitory concentration (IC50) lay in the range of 250 to 500 nM.

In the case of `CSc1nnnn1-c1cccc(Nc2ncc(F)c(NC3CC(C)N(C4CC4)C(C)C3)n2)c1` (stereo not shown) [III-10, N^4-(1-cyclopropyl-2,6-dimethylpiperidin-4-yl)-5-fluoro-N2-(3-(5-(methylthio)-1H-tetrazol-1-yl)phenyl)pyrimidine-2,4-diamine], the IC50 was 250 to 500 nM.

For the compound `CC1CC(Nc2nc(Nc3ccc(F)c(-n4cnnn4)c3)ncc2F)CC(C)N1C1CC1` (stereo not shown) [III-11, N^4-(1-cyclopropyl-2,6-dimethylpiperidin-4-yl)-5-fluoro-N^2-(4-fluoro-3-(1H-tetrazol-1-yl)phenyl)pyrimidine-2,4-diamine], the IC50 was 250 to 500 nM.

The assay is the same for the next values; noted with them: human primary T cells stimulated with anti-CD3 + anti-CD28, 24 hours.
For the compound `CC1(C)CC(Nc2nc(Nc3ccc4c(c3)OCCO4)ncc2F)CC(C)(C)N1` [II-10, N2-(3,4-Ethylenedioxy)phenyl-5-fluoro-N4-(2,2,6,6-tetramethylpiperidin-4-yl)-2,4-pyrimidinediamine], the concentration for half-maximal inhibition (IC50) was above 1000 nM.

Values taken from patent publication US9149475B2, “Protein kinase C inhibitors and uses thereof” (Rigel Pharmaceuticals, Inc., priority 2009, dated 2015).
